# Several values for one entry are separate records, joined by “and”; a condition that tells them apart may be missing. Equal entries are not always repeated. Where two headings read alike, the source gives them in different places.
# How the values were obtained:
# [1] = test system: spleen lymphocytes of BDF1 mice; details: 7 days
# Procedure: (§1) The purpose of this assay is to challenge lymphocytes in microcultures with one or more polyclonal mitogens at concentrations that will induce mitogenesis within 72 hours of stimulation.
# (§2) In the mouse model, spleens are removed from different strains of mice and the spleen cells are teased free and suspended in RPMI-1640 tissue culture medium at a concentration of usually 1×10^7 ml. These cells are dispensed at a concentration of 5.0×10^5 cells per microculture well in a 96 well flat bottom 96 well tissue culture plate. All testing of the compounds of this invention or mitogens are done in replicates of 10. The cells are then treated with PHA, Con-A, specific antigens, or buffer only. If in vitro testing is done, varying concentrations of the compounds of this invention or buffer only are added to the cells as well. After treatment with the mitogens and/or compounds of this invention, the cells are incubated for 72 hours. The response of these cells to mitogens and/or the compounds of this invention is assessed using ^14 C-thymidine labeling on the fourth day at a concentration of 0.01 μCi/well. The labeled cells are harvested using a lymphocyte harvestor and placed onto fibrous paper discs. A scintillation cocktail is added to vials contaning the discs and the results are obtained using a LKB-liquid scintillation counter (Model 1216/Rackbeta II). The data is expressed as a ratio of the cpm of the mitogen stimulated group to the control (non-mitogen) treated group=lymphocyte stimulation index (LSI).
# (§3) The lymphocyte stimulation assay may be performed directly on spleen cells obtained from various strains of mice not treated with the compounds of this invention or on lymphocytes obtained from […]. […] Alternatively, the mice may be treated in vivo with the compounds of this invention by intraperitoneal multi-dose schedules, followed by sacrifice and harvesting spleen lymphocytes. These cells are then tested for their response to polyclonal mitogens or specific antigens used to immunize the mice. In this sytem however, no additional compound is added to the in vitro lymphocyte stimulation assay system.
# Two strains of mice, C57BL/6 and BDF1 are treated for seven days with i.p. administration of either 25, 50, 100, 200, or 400 mg/kg of Cpd. 1 or just buffer. This is followed on the eighth day by a lymphocyte stimulation assay.
# [2] = test system: spleen lymphocytes from C57BL/6 mice; experiment: In vitro lymphocyte stimulation assay, C57BL/6 spleen lymphocytes; assay type: cell-based, mouse
# Procedure: as §1, §2, §3
# An in vitro lymphocyte stimulation assay is performed directly on normal spleen lymphocytes removed from five normal C57BL/6 mice, using concentrations of Cpd. […] Following three days of incubation the assay is completed.
# An in vitro lymphocyte stimulation assay was performed using spleen lymphocytes from normal C57BL/6 mice. The lymphocytes were treated with either 1, 5, 10, 50, or 100 μg/well of Cpd. 1 or buffer.
# Cpd. 2 was tested using normal spleen lymphocytes from C57BL/6 mice. A lymphocyte stimulation assay was conducted using either 1, 5, 10, 50, or 100 μg/well […] or just buffer.
# Spleen cells from C57BL/6 mice were treated, in vitro, with the crystallizing reagents, succinic acid and succinimide. Since these compounds are spontaneously released from the molecular complex in solution at a molar ratio of 2 moles of Cpds. 1, 2, or 3 per mole of the crystalline reagent, these reagents were treated in the lymphocyte stimulation assay at proper molar concentrations.
# The compound of example 3, Cpd. 3, was used to treat C57BL/6 spleen lymphocytes in vitro. The lymphocytes were treated with either 1, 5, 10, 50, or 100 μg/well of Cpd. 3 or just buffer and then a lymphocyte stimulation assay was performed.
# [3] = test system: spleen lymphocytes of BSA-immunized C57BL/6 mice
# Text: The effect of the compounds of this invention on the immune response to specific antigens involves immunization of mice with specific anitgens such as bovine serum albumin (BSA) or keyhole limpet hemocyanin (KLH). Following immunization, it is possible to assess the cell-mediated or humoral (antibody) immune response to these antigens by various methods:
# (1) Lymphocyte stimulation assays can be performed using varying concentrations of the specific antigens as mitogens in the lymphocyte stimulation microculture system described above. The only difference is that the incubation period is extended to five days instead of three as for the polyclonal mitogens.
# Mice of the C57BL/6 strain are given i.p. injections of either 50, 100, 200 or 400 mg/kg of Cpd. 1 or buffer for twelve days (days 1-12). An antigen, bovine serum albumin (BSA), is administered intraperitoneally with Freund's Complete Adjuvant (FCA) on days 1, 7 and 14. Blood samples are taken for assay of the antibody response on days 0, 5, 13, and 19.
smiles,measurement,setting,value
Cc1ccc(C2(O)C(=O)OC3C(O)COC32O)o1.Cc1ccc(C2(O)C(=O)OC3C(O)COC32O)o1.O=C1CCC(=O)O1 (stereo not shown) [Cpd. 1],Con-A response,[1]; 400 mg/kg i.p.,slight suppression of the Con-A response
same,PHA response,[1]; 400 mg/kg i.p.,strong suppression of the PHA response
same,"T-lymphocyte proliferation, PHA",[1]; 50 and 100 mg/kg i.p.,stimulation of T-lymphocyte proliferation
same,Con-A response,[1]; between 50 and 100 mg/kg i.p.,significantly increased
same,"Lymphocyte Stimulation Index, Con-A",[2]; 1 μg/well in vitro,178 and 123
same,"Lymphocyte Stimulation Index, PHA",[2]; 1 μg/well in vitro,53.8 and 80.4
same,"Lymphocyte Stimulation Index, Con-A",[2]; 5 μg/well in vitro,162
same,"Lymphocyte Stimulation Index, Control (no mitogen)",[2]; 5 μg/well in vitro,1.8
same,"Lymphocyte Stimulation Index, PHA",[2]; 5 μg/well in vitro,157
same,"mitogenesis, PHA and Con-A",[2]; 10 μg/well (Example 12),significant suppression
same,"Lymphocyte Stimulation Index, Con-A",[2]; 50 μg/well in vitro,3.78
same,"Lymphocyte Stimulation Index, Control (no mitogen)",[2]; 50 μg/well in vitro,.20
same,"Lymphocyte Stimulation Index, PHA",[2]; 50 μg/well in vitro,.261
same,"Lymphocyte Stimulation Index, Con-A",[2]; 100 μg/well in vitro,.308
same,"Lymphocyte Stimulation Index, Control (no mitogen)",[2]; 100 μg/well in vitro,.20
same,"Lymphocyte Stimulation Index, PHA",[2]; 100 μg/well in vitro,.292
same,"mitogenesis, PHA and Con-A",[2]; 0.001-1.0 μg/well,significant stimulation of mitogenesis
same,response to PHA and Con-A,[2]; 5 and 10 μg/well,significant increases
same,lymphocyte response to the mitogens,[2]; 50 and 100 μg/well,significant decreases
same,"Lymphocyte Stimulation Index, Con-A",[2]; .001 μg/well in vitro,198
same,"Lymphocyte Stimulation Index, Control (no mitogen)",[2]; .001 μg/well in vitro,3.8
same,"Lymphocyte Stimulation Index, PHA",[2]; .001 μg/well in vitro,80.4
same,"Lymphocyte Stimulation Index, Con-A",[2]; .01 μg/well in vitro,198
same,"Lymphocyte Stimulation Index, Control (no mitogen)",[2]; .01 μg/well in vitro,3.2
same,"Lymphocyte Stimulation Index, PHA",[2]; .01 μg/well in vitro,87.5
same,"Lymphocyte Stimulation Index, Con-A",[2]; .1 μg/well in vitro,198
same,"Lymphocyte Stimulation Index, Control (no mitogen)",[2]; .1 μg/well in vitro,3.2
same,"Lymphocyte Stimulation Index, PHA",[2]; .1 μg/well in vitro,83.1
same,Lymphocyte Stimulation Index,"[3]; 50 mg/kg i.p., day 13, BSA 0 μg/well",16.5
same,Lymphocyte Stimulation Index,"[3]; 50 mg/kg i.p., day 13, BSA 0.01 μg/well",19.9
same,Lymphocyte Stimulation Index,"[3]; 50 mg/kg i.p., day 13, BSA 0.1 μg/well",23.1
same,Lymphocyte Stimulation Index,"[3]; 50 mg/kg i.p., day 13, BSA 0.5 μg/well",22.9
same,Lymphocyte Stimulation Index,"[3]; 50 mg/kg i.p., day 13, BSA 1 μg/well",18.2
same,Lymphocyte Stimulation Index,"[3]; 50 mg/kg i.p., day 19, BSA 0 μg/well",.26
same,Lymphocyte Stimulation Index,"[3]; 50 mg/kg i.p., day 19, BSA 0.01 μg/well",2.33
same,Lymphocyte Stimulation Index,"[3]; 50 mg/kg i.p., day 19, BSA 0.1 μg/well",2.27
same,Lymphocyte Stimulation Index,"[3]; 50 mg/kg i.p., day 19, BSA 0.5 μg/well",2.37
same,Lymphocyte Stimulation Index,"[3]; 50 mg/kg i.p., day 19, BSA 1.0 μg/well",2.63
same,DNA synthesis compared to controls,"[3]; 50 mg/kg, day 13",significant stimulation of DNA synthesis
same,DNA synthesis effect,"[3]; 50 mg/kg, day 19",waned
same,Lymphocyte Stimulation Index,"[3]; 100 mg/kg i.p., day 13, BSA 0 μg/well",3.22
same,Lymphocyte Stimulation Index,"[3]; 100 mg/kg i.p., day 13, BSA 0.01 μg/well",9.8
same,Lymphocyte Stimulation Index,"[3]; 100 mg/kg i.p., day 13, BSA 0.1 μg/well",11.9
same,Lymphocyte Stimulation Index,"[3]; 100 mg/kg i.p., day 13, BSA 0.5 μg/well",12.3
same,Lymphocyte Stimulation Index,"[3]; 100 mg/kg i.p., day 13, BSA 1 μg/well",10.2
same,Lymphocyte Stimulation Index,"[3]; 100 mg/kg i.p., day 19, BSA 0 μg/well",4.1
same,Lymphocyte Stimulation Index,"[3]; 100 mg/kg i.p., day 19, BSA 0.01 μg/well",3.79
same,Lymphocyte Stimulation Index,"[3]; 100 mg/kg i.p., day 19, BSA 0.1 μg/well",2.68
same,Lymphocyte Stimulation Index,"[3]; 100 mg/kg i.p., day 19, BSA 0.5 μg/well",2.03
same,Lymphocyte Stimulation Index,"[3]; 100 mg/kg i.p., day 19, BSA 1.0 μg/well",.26
same,Lymphocyte Stimulation Index,"[3]; 200 mg/kg i.p., day 13, BSA 0 μg/well",10.6
same,Lymphocyte Stimulation Index,"[3]; 200 mg/kg i.p., day 13, BSA 0.01 μg/well",14.1
same,Lymphocyte Stimulation Index,"[3]; 200 mg/kg i.p., day 13, BSA 0.1 μg/well",15.8
same,Lymphocyte Stimulation Index,"[3]; 200 mg/kg i.p., day 13, BSA 0.5 μg/well",13.8
same,Lymphocyte Stimulation Index,"[3]; 200 mg/kg i.p., day 13, BSA 1 μg/well",14.0
same,Lymphocyte Stimulation Index,"[3]; 200 mg/kg i.p., day 19, BSA 0 μg/well",0.42
same,Lymphocyte Stimulation Index,"[3]; 200 mg/kg i.p., day 19, BSA 0.01 μg/well",2.94
same,Lymphocyte Stimulation Index,"[3]; 200 mg/kg i.p., day 19, BSA 0.1 μg/well",2.82
same,Lymphocyte Stimulation Index,"[3]; 200 mg/kg i.p., day 19, BSA 0.5 μg/well",2.56
same,Lymphocyte Stimulation Index,"[3]; 200 mg/kg i.p., day 19, BSA 1.0 μg/well",2.12
same,Lymphocyte Stimulation Index,"[3]; 400 mg/kg i.p., day 13, BSA 0 μg/well",10.9
same,Lymphocyte Stimulation Index,"[3]; 400 mg/kg i.p., day 13, BSA 0.01 μg/well",13.7
same,Lymphocyte Stimulation Index,"[3]; 400 mg/kg i.p., day 13, BSA 0.1 μg/well",12.8
same,Lymphocyte Stimulation Index,"[3]; 400 mg/kg i.p., day 13, BSA 0.5 μg/well",12.3
same,Lymphocyte Stimulation Index,"[3]; 400 mg/kg i.p., day 13, BSA 1 μg/well",13.8
same,Lymphocyte Stimulation Index,"[3]; 400 mg/kg i.p., day 19, BSA 0 μg/well",5.0
same,Lymphocyte Stimulation Index,"[3]; 400 mg/kg i.p., day 19, BSA 0.01 μg/well",3.26
same,Lymphocyte Stimulation Index,"[3]; 400 mg/kg i.p., day 19, BSA 0.1 μg/well",2.89
same,Lymphocyte Stimulation Index,"[3]; 400 mg/kg i.p., day 19, BSA 0.5 μg/well",1.94
same,Lymphocyte Stimulation Index,"[3]; 400 mg/kg i.p., day 19, BSA 1.0 μg/well",1.04

# From patent publication US4620014A, “2-furylbutyrolactones and methods for using same” (priority 1983, dated 1986)
